Source: patent publication US7531558B2, “Carboxamide derivatives” (Glaxo Group Limited, priority 2003, dated 2009)

These compounds were tested on FCA-induced mechanical hyperalgesia (assay: FCA-induced hyperalgesia in the guinea pig (paw pressure, Randall-Sellito)). Conditions: male Dunkin Hartley guinea-pigs; oral 3, 10, 30 mg/kg 24 h after intraplantar FCA; reading 1 hour after drug administration.
Format: in vivo
Description: 100 μl of 1 mg/ml FCA was injected intraplantar into the left paw of 4 groups of 8 male Dunkin Hartley guinea-pigs (batch: 6282434, average weight 340 g). 24 hours later compounds were administered orally at 0 (vehicle), 3, 10 30 mg/kg with vehicle as 1% methylcellulose and dosing volume being 2 ml/kg and dosing straight into the stomach. The methylcellulose was added gradually to the compound into the pestle and mortar and ground together.
Behavioural readouts of mechanical hyperalgesia were obtained before FCA administration (naïve reading), after FCA but before drug administration (predose reading) and 1 hour after drug administration. The readout used was paw pressure (Randall-Sellito) and the end point was paw withdrawal. The paw pressure equipment also had one silver disc placed on the point to increase the markings by a factor of 2.
For Cc1nc2cc(NC(=O)c3ccc(-c4ccc(F)c(F)c4)nc3C)ccc2s1 [Example 3, 6-(3,4-Difluorophenyl)-2-methyl-N-(2-methylbenzothiazol-5-yl)-nicotinamide], the “activity in FCA-induced mechanical hyperalgesia (paw withdrawal)” value (from here on “activity”) was “active”. In the case of Cc1nc2cc(NC(=O)c3ccc(-c4cccc(F)c4F)nc3C)ccc2s1 [Example 5, 6-(2,3-Difluorophenyl)-2-methyl-N-(2-methylbenzothiazol-5-yl)-nicotinamide], the “activity” value is reported as “active”. With Cc1nc2cc(NC(=O)c3ccc(-c4ccc(F)cc4)nc3C)ccc2s1 [Example 1, 6-(4-Fluorophenyl)-2-methyl-N-(2-methylbenzothiazol-5-yl)nicotinamide] the “activity” value was “active”. Cc1nc2cc(NC(=O)c3ccc(-c4ccc(F)cc4F)nc3C)ccc2s1 [Example 2, 6-(2,4-Difluorophenyl)-2-methyl-N-(2-methylbenzothiazol-5-yl)-nicotinamide] was tested, and the “activity” value was “active”. In the case of Cc1nc2cc(NC(=O)N3CCN(c4ccccc4F)CC3)ccc2s1 [Example 16, 4-(2-Fluorophenyl)-N-(2-methylbenzothiazol-5-yl)-1-piperazine carboxamide], the “activity” value is reported as “active”. In the case of Cc1nc(-c2ccc(F)cc2)ccc1C(=O)Nc1ccc2scnc2c1 [Example 4, N-Benzothiazol-5-yl-6-(4-fluorophenyl)-2-methyl-nicotinamide], the “activity” value is reported as “active”.
